Drawing on ChEMBL document CHEMBL2434880, “Synthesis and assessment of catechol diether compounds as inhibitors of trypanosomal phosphodiesterase B1 (TbrPDEB1)” (Bioorg Med Chem Lett, 2013), this text covers IC50, EC50 and inhibition for 22 molecules.

The target in one assay is T1, Class 1 phosphodiesterase PDEB1 (Trypanosoma brucei, UniProt Q8WQX9).
T1 sequence (Q8WQX9 whole entry): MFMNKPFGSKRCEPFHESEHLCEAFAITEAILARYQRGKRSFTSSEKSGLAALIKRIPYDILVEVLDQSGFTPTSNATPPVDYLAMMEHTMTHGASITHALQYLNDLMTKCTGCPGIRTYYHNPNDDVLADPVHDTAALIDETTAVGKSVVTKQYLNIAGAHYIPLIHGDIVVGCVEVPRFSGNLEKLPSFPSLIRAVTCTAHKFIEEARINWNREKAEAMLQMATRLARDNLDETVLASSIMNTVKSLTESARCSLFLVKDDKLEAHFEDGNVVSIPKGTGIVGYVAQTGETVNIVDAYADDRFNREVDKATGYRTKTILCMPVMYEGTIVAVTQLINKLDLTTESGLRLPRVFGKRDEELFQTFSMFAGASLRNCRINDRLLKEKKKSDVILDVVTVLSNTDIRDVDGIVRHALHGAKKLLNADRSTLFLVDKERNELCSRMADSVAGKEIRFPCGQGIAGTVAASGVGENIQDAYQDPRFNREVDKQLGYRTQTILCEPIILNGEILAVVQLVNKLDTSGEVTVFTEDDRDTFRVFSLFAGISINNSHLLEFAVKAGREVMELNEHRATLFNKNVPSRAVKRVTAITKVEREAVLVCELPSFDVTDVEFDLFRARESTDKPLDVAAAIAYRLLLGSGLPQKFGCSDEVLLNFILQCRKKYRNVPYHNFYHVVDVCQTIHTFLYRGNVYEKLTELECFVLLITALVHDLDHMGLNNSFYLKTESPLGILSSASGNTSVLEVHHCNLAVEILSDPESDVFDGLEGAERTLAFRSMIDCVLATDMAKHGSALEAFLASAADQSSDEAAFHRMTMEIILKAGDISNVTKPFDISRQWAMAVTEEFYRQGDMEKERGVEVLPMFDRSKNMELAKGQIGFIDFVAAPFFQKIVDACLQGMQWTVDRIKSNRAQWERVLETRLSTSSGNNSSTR
Kind of assay: Inhibition of Trypanosoma brucei PDEB1.
`COc1ccc(C2=NN(C3CCCC3)C(=O)[C@H]3CC=CC[C@@H]23)cc1OC1CCCC1` displayed an IC50 of 278 nM.

Another assay relates to Trypanosoma brucei brucei. Put plainly: Antitrypanosomal activity against Trypanosoma brucei brucei. It is filed as functional, organism-based.
`COc1ccc(C2=NN(C3CCCCCC3)C(=O)[C@H]3CC=CC[C@@H]23)cc1OCCCCOc1ccc(-c2nn[nH]n2)cc1` came in with an EC50 of 80 nM.

Tested on in the next assay: not listed separately
Kind of assay: Inhibition of Trypanosoma brucei PDEB2.
As for `COc1ccc(C2=NN(C3CCCC3)C(=O)[C@H]3CC=CC[C@@H]23)cc1OC1CCCC1`, the IC50 is 544 nM.

Take `COc1ccc(C2=NN(C3CCCCCC3)C(=O)[C@H]3CC=CC[C@@H]23)cc1OCCCCOc1ccc(-c2nn[nH]n2)cc1`: it took 6 nM to reach half-maximal inhibition (IC50).

The next assay addresses Phosphodiesterase 4 (Homo sapiens, UniProt P27815+Q08499+Q07343+Q08493). Kind of assay: Inhibition of human PDE4. It is filed as protein assay.
`COc1ccc(C2=NN(C3CCCC3)C(=O)[C@H]3CC=CC[C@@H]23)cc1OC1CCCC1` returned an IC50 of 10 nM.

Consider `COc1ccc(C2=NN(C3CCCCCC3)C(=O)[C@H]3CC=CC[C@@H]23)cc1OCCCCOc1ccc(-c2nn[nH]n2)cc1`, for which the IC50 was determined as 0.6 nM.

For the next assay, the target named is T2, Class 1 phosphodiesterase PDEB1 (Trypanosoma brucei) (UniProt Q8WQX9).
T2 sequence (whole entry): T1 sequence (Q8WQX9 whole entry)
Put plainly: Inhibition of Trypanosoma brucei recombinant PDEB1 at 10 uM by spectrophotometric analysis relative to control.
On to `COc1ccc(-c2ccnc(N(C)C)c2)cc1OCc1ccccc1`, for which the inhibition worked out at 48%.

With `COc1ccc(-c2ccnc(NC3CCCCC3)c2)cc1OC1CCCC1`, the inhibition was 27.1%.

With `COc1ccc(-c2ccnc(NC3CCCC3)n2)cc1OCc1ccccc1`, the inhibition came out at 21.8%.

Turning to `COc1ccc(-c2ccnc(NCc3ccccc3)c2)cc1OCc1ccccc1`, the inhibition turned out to be 7.2%.

For the molecule `COc1ccc(-c2ccnc(NC3CCCCC3)n2)cc1OC1CCCC1`, the inhibition was 29.8%.

With `COc1ccc(-c2cccc3ncccc23)cc1OC1CCCC1`, the inhibition was 69.1%.

Turning to `COc1ccc(-c2ccnc(NCc3ccccc3)n2)cc1OC1CCCC1`, the inhibition was 32.9%.

As for `COc1ccc(-c2ccc(OC)c(OC3CCCC3)c2)cn1`, the inhibition is 7.6%.

As for `COc1ccc(-c2ccnc(NC3CCC3)n2)cc1OC1CCCC1`, the inhibition stood at 3.9%.

In the case of `COc1ccc(-c2ccnc(N(C)C)c2)cc1OC1CCCC1`, the inhibition amounted to 34%.

As to `COc1ccc(-c2ccnc(NC3CCCCCC3)n2)cc1OCc1ccccc1`, the inhibition was 22.3%.

For the molecule `COc1ccc(-c2ccnc(NC3CCCCC3)n2)cc1OCc1ccccc1`, the inhibition came out at 23.2%.

With `COc1ccc(-c2ccncc2)cc1OC1CCCC1`, the inhibition amounted to 18.7%.

In the case of `COc1ccc(-c2ccnc(NCc3ccccc3)n2)cc1OCc1ccccc1`, the inhibition is 18.5%.

Consider `COc1ccc(-c2ccnc(NC3CCCCC3)c2)cc1OCc1ccccc1`, for which the inhibition worked out at 28.4%.

In the case of `COc1ccc(-c2ccnc(N(C)C)n2)cc1OC1CCCC1`, the inhibition was 15.8%.

Take `COc1ccc(-c2ccnc(NC3CCCCCC3)n2)cc1OC1CCCC1`: the inhibition was 20.6%.

`COc1ccc(-c2ccnc(NC3CCCC3)n2)cc1OC1CCCC1`: the inhibition was determined as 12.7%.

For `COc1ccc(-c2ccnc(N(C)C)n2)cc1OCc1ccccc1`, the inhibition was 14.5%.

Consider `COc1ccc(-c2ccnc(NC3CCC3)n2)cc1OCc1ccccc1`, for which the inhibition worked out at 16.1%.

Usually IC50 stands for the concentration that inhibits the measured activity by half. By EC50 is commonly meant the concentration needed to bring the measured effect to its halfway point. The term inhibition denotes the percentage by which the read-out fell short of the control.
